Measured values taken from US8183380B2, “2-aminoquinolines” (Hoffmann-La Roche Inc., priority 2008, dated 2012).
Structures can show the parent of a compound that is named as a salt.

Target: T1, recombinant human 5-HT5A receptor (Homo sapiens, UniProt P47898)
T1 construct: expressed in transfected cells; host or cells: HEK-EBNA (Human Embryonic Kidney-EBNA) cells, transient cDNA expression; membranes
Assay: [3H]LSD radioligand binding assay
Conditions: [3H]LSD (approximately 1 nM); membranes from transiently expressed 5-HT5A receptors in HEK-EBNA cells; Ki from IC50 by Cheng-Prussoff equation
Procedure: A [^3H]LSD radioligand binding assay was used to determine the affinity of the compounds for the recombinant human 5-HT5A receptor, in membranes from transiently (cDNA) expressed 5-HT5A receptors in Human Embryonic Kidney-EBNA (HEK-EBNA) cells. Assay buffer consisted of Tris (50 mM) buffer containing 1 mM EGTA, 10 mM MgCl2 (pH 7.4) and 10 μM pargyline. The binding assay was carried out in 96-well-plates in the presence of [^3H]LSD (approximately 1 nM), approximately 2 μg/well of membrane protein, and 0.5 mg of Ysi-poly-1-lysine SPA beads in a final volume of 200 μl of buffer. Non-specific binding was defined using methiothepin 2 μM. Compounds were tested at 10 concentrations. All assays were conducted in duplicate and repeated at least two times. Assay plates were incubated for 120 min at room temperature before centrifugation. Bound ligand was determined using a Packard Topcount scintillation counter. IC50 values were calculated using a non-linear curve fitting program and Ki values calculated using the Cheng-Prussoff equation.

T1 sequence (P47898 whole entry): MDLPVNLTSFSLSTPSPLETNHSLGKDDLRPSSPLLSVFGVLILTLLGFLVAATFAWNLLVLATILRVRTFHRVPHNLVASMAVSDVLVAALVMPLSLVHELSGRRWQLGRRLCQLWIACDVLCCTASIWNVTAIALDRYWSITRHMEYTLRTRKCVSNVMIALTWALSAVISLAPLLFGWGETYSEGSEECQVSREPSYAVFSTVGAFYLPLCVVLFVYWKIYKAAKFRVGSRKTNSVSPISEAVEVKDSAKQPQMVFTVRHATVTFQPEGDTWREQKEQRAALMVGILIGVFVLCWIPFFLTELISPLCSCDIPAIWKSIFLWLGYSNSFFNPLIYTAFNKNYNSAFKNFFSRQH

Structure (SMILES)	Ki [nM]
CC(C)N1CCC(NC(=O)Nc2ccc3nc(NC4CCc5ccc(F)cc54)ccc3c2)CC1 (racemic) [Example 155, rac-1-[2-(6-Fluoro-indan-1-ylamino)-quinolin-6-yl]-3-(1-isopropyl-piperidin-4-yl)-urea]	6.3
O=C(Nc1ccc2nc(NC3CCc4cccc(F)c43)ccc2c1)C1CC1 (racemic) [Example 162, rac-Cyclopropanecarboxylic acid [2-(7-fluoro-indan-1-ylamino)-quinolin-6-yl]-amide]	8.3
COc1cccc2c1C(Nc1ccc3cc(NC(=O)N(C)C4CCN(C(C)C)CC4)ccc3n1)CC2 (racemic) [Example 179, rac-1-(1-Isopropyl-piperidin-4-yl)-3-[2-(7-methoxy-indan-1-ylamino)-quinolin-6-yl]-1-methyl-urea]	7.1
CCOc1cccc2c1C(Nc1ccc3cc(NC(=O)NC4CCN(C(C)C)CC4)ccc3n1)CO2 (racemic) [Example 181, rac-1-[2-(4-Ethoxy-2,3-dihydro-benzofuran-3-ylamino)-quinolin-6-yl]-3-(1-isopropyl-piperidin-4-yl)-urea]	4.1
COc1cccc2c1C(Nc1ccc3cc(NC(=O)N[C@@H]4C[C@H]5CC[C@@H](C4)N5C(C)C)ccc3n1)CC2 (mixture of isomers) [Example 186, rac-1-((3-exo)-8-Isopropyl-8-aza-bicyclo[3.2.1]oct-3-yl)-3-[2-(7-methoxy-indan-1-ylamino)-quinolin-6-yl]-urea]	5.7
COc1cccc2c1C(Nc1ccc3cc(NC(=O)N(C)[C@@H]4C[C@H]5CC[C@@H](C4)N5C(C)C)ccc3n1)CC2 (mixture of isomers) [Example 188, rac-1-((3-exo)-8-Isopropyl-8-aza-bicyclo[3.2.1]oct-3-yl)-3-[2-(7-methoxy-indan-1-ylamino)-quinolin-6-yl]-1-methyl-urea]	8.5
COc1cccc2c1C(Nc1ccc3cc(NC(=O)N(C)C4CCN(CC(C)(C)O)CC4)ccc3n1)CC2 (racemic) [Example 191, rac-1-[1-(2-Hydroxy-2-methyl-propyl)-piperidin-4-yl]-3-[2-(7-methoxy-indan-1-ylamino)-quinolin-6-yl]-1-methyl-urea]	6.9
COc1cccc2c1C(Nc1ccc3cc(NC(=O)C4CC4)ccc3n1)CO2 (racemic) [Example 195, rac-Cyclopropanecarboxylic acid [2-(4-methoxy-2,3-dihydro-benzofuran-3-ylamino)-quinolin-6-yl]-amide]	7.3
COc1cccc2c1C(Nc1ccc3cc(NC(=O)N(C)C4CCN(CCO)CC4)ccc3n1)CC2 (racemic) [Example 206, rac-1-[1-(2-Hydroxy-ethyl)-piperidin-4-yl]-3-[2-(7-methoxy-indan-1-ylamino)-quinolin-6-yl]-1-methyl-urea]	6.7
CC(C)(C)NC(=O)Nc1ccc2nc(N[C@@H]3CCc4ccccc43)ccc2c1 [Example 8, 1-tert-Butyl-3-[2-((R)-indan-1-ylamino)-quinolin-6-yl]-urea]	10.9
COCCNC(=O)Nc1ccc2nc(N[C@@H]3CCc4ccccc43)ccc2c1 [Example 17, 1-[2-((R)-Indan-1-ylamino)-quinolin-6-yl]-3-(2-methoxy-ethyl)-urea]	7
CN(C)CCNC(=O)Nc1ccc2nc(N[C@@H]3CCc4ccccc43)ccc2c1 [Example 18, 1-(2-Dimethylamino-ethyl)-3-[2-((R)-indan-1-ylamino)-quinolin-6-yl]-urea]	7.3
O=C(Nc1ccc2nc(N[C@@H]3CCc4ccccc43)ccc2c1)NC1CCOCC1 [Example 19, 1-[2-((R)-Indan-1-ylamino)-quinolin-6-yl]-3-(tetrahydro-pyran-4-yl)-urea]	4
O=C(NCC1CC1)Nc1ccc2nc(N[C@@H]3CCc4ccccc43)ccc2c1 [Example 23, 1-Cyclopropylmethyl-3-[2-((R)-indan-1-ylamino)-quinolin-6-yl]-urea]	4.7
O=C(Nc1ccc2nc(N[C@@H]3CCc4ccccc43)ccc2c1)NC1CC2CCC1C2 (stereo partly drawn) [Example 26, 1-Bicyclo[2.2.1]hept-2-yl-3-[2-((R)-indan-1-ylamino)-quinolin-6-yl]-urea]	4.8
CN(CCNC(=O)Nc1ccc2nc(N[C@@H]3CCc4ccccc43)ccc2c1)C1CC1 [Example 32, 1-[2-(Cyclopropyl-methyl-amino)-ethyl]-3-[2-((R)-indan-1-ylamino)-quinolin-6-yl]-urea]	8.2
O=C(Nc1ccc2nc(N[C@@H]3CCc4ccccc43)ccc2c1)NC1CCN(C2CC2)CC1 [Example 41, 1-(1-Cyclopropyl-piperidin-4-yl)-3-[2-((R)-indan-1-ylamino)-quinolin-6-yl]-urea]	4.1
CSCCN1CCC(NC(=O)Nc2ccc3nc(N[C@@H]4CCc5ccccc54)ccc3c2)CC1 [Example 48, 1-[2-((R)-Indan-1-ylamino)-quinolin-6-yl]-3-[1-(2-methylsulfanyl-ethyl)-piperidin-4-yl]-urea]	7.7
O=C(Nc1ccc2nc(N[C@@H]3CCc4ccccc43)ccc2c1)NC1CCN(CCC(F)(F)F)CC1 [Example 63, 1-[2-((R)-Indan-1-ylamino)-quinolin-6-yl]-3-[1-(3,3,3-trifluoro-propyl)-piperidin-4-yl]-urea]	10.4
CN(C)S(=O)(=O)Nc1ccc2nc(N[C@@H]3CCc4ccccc43)ccc2c1 [Example 66, N′-{2-[(1R)-2,3-dihydro-1H-inden-1-ylamino]quinolin-6-yl}-N,N-dimethylsulfamide]	5.6
NS(=O)(=O)Nc1ccc2nc(N[C@@H]3CCc4ccccc43)ccc2c1 [Example 72, N-{2-[(1R)-2,3-dihydro-1H-inden-1-ylamino]quinolin-6-yl}sulfamide hydrochloride]	8.4

More lines, in order of falling Ki, values ahead:

Ki [nM]	Structure (SMILES)
3.9	O=C(Nc1ccc2nc(N[C@@H]3CCc4ccccc43)ccc2c1)NC1CC1 [Example 21, 1-Cyclopropyl-3-[2-((R)-indan-1-ylamino)-quinolin-6-yl]-urea]
3.9	O=C(Nc1ccc2nc(N[C@@H]3CCc4ccccc43)ccc2c1)NC1CCNCC1 [Example 39, 1-[2-((R)-Indan-1-ylamino)-quinolin-6-yl]-3-piperidin-4-yl-urea]
3.8	CC(C)N1CCC(NC(=O)Nc2ccc3nc(NC4CCc5cccc(F)c54)ccc3c2)CC1 (racemic) [Example 156, rac-1-[2-(7-Fluoro-indan-1-ylamino)-quinolin-6-yl]-3-(1-isopropyl-piperidin-4-yl)-urea]
3.5	O=C(Nc1ccc2nc(NC3CCc4cc(F)ccc43)ccc2c1)NC1CCN(CCO)CC1 (racemic) [Example 197, rac-1-[2-(5-Fluoro-indan-1-ylamino)-quinolin-6-yl]-3-[1-(2-hydroxy-ethyl)-piperidin-4-yl]-urea]
3.4	CNC(=O)Nc1ccc2nc(N[C@@H]3CCc4ccccc43)ccc2c1 [Example 7, 1-[2-((R)-Indan-1-ylamino)-quinolin-6-yl]-3-methyl-urea]
3.3	COc1cccc2c1C(Nc1ccc3cc(N)ccc3n1)CC2 (racemic) [Example 172, rac-N^2-(7-Methoxy-indan-1-yl)-quinoline-2,6-diamine]
3.2	O=S(=O)(Nc1ccc2nc(N[C@@H]3CCc4ccccc43)ccc2c1)N1CCCC1 [Example 73, Pyrrolidine-1-sulfonic acid [2-((R)-indan-1-ylamino)-quinolin-6-yl]-amide]
2.9	O=C(Nc1ccc2nc(N[C@@H]3CCc4ccccc43)ccc2c1)NC1CCCCC1 [Example 5, 1-Cyclohexyl-3-[2-((R)-indan-1-ylamino)-quinolin-6-yl]-urea]
2.9	NC(=O)Nc1ccc2nc(N[C@@H]3CCc4ccccc43)ccc2c1 [Example 9, [2-((R)-Indan-1-ylamino)-quinolin-6-yl]-urea]
2.8	COc1cccc2c1C(Nc1ccc3cc(NC(=O)NC4CCN(C(C)C)CC4)ccc3n1)CO2 (racemic) [Example 180, rac-1-(1-Isopropyl-piperidin-4-yl)-3-[2-(4-methoxy-2,3-dihydro-benzofuran-3-ylamino)-quinolin-6-yl]-urea]
2.5	CC(C)NC(=O)Nc1ccc2nc(N[C@@H]3CCc4ccccc43)ccc2c1 [Example 3, 1-[2-((R)-Indan-1-ylamino)-quinolin-6-yl]-3-isopropyl-urea]
2.5	COCCN1CCC(NC(=O)Nc2ccc3nc(N[C@@H]4CCc5ccccc54)ccc3c2)CC1 [Example 43, 1-[2-((R)-Indan-1-ylamino)-quinolin-6-yl]-3-[1-(2-methoxy-ethyl)-piperidin-4-yl]-urea]
2.4	CC(C)N1CCC(NC(=O)Nc2ccc3nc(N[C@@H]4CCc5ccccc54)ccc3c2)CC1 [Example 42, 1-[2-((R)-Indan-1-ylamino)-quinolin-6-yl]-3-(1-isopropyl-piperidin-4-yl)-urea]
1.8	COc1cccc2c1C(Nc1ccc3cc(NC(=O)NC4CCN(CCO)CC4)ccc3n1)CC2 (racemic) [Example 189, rac-1-[1-(2-Hydroxy-ethyl)-piperidin-4-yl]-3-[2-(7-methoxy-indan-1-ylamino)-quinolin-6-yl]-urea]
1.8	CN1CCC(NC(=O)Nc2ccc3nc(N[C@@H]4CCc5ccccc54)ccc3c2)CC1 [Example 20, 1-[2-((R)-Indan-1-ylamino)-quinolin-6-yl]-3-(1-methyl-piperidin-4-yl)-urea]
0.9	COc1cccc2c1C(Nc1ccc3cc(NC(=O)NC(C)C)ccc3n1)CC2 (single isomer, unassigned; (-)) [Example 13, (−)-1-Isopropyl-3-[2-(7-methoxy-indan-1-ylamino)-quinolin-6-yl]-urea]
